Read-outs that look alike come from different tables or passages of the source.
Key:
[1] = system: LFA-1 dependent aggregation of JY cells; experiment: JY cell homotypic aggregation assay (PMA-stimulated); type: cell-based, human; conditions: Homo sapiens
Outline: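 Homotypic aggregation of EBV-transformed JY cells, stimulated by phorbol myristate acetate ([…]), scored visually over time in compound presence at 2·10^5 cells/well in serum-supplemented RPMI 1640. Result given as μM concentration or range inhibiting binding by 50%.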

[2] = target: T1, interaction of ICAM-1 with the Leukointegrin CD18/CD11a (LFA-1) (Homo sapiens, UniProt P05107+P20701); experiment: Assay to determine inhibition of LFA-1 binding to ICAM-1 (immunopurified LFA-1 on plate-bound sICAM-1, ELISA readout)
T1 construct: endogenous in cells; sICAM-1: made in house, secreted from transfected CHO DUX cells

[3] = system: human MLR, peripheral blood mononuclear cells; experiment: Inhibition of the mixed lymphocyte reaction (MLR), tritiated thymidine uptake; type: cell-based; parameters: key: Data are reported as “+” or “−” at a given concentration (in μM); Data are reported as “+” or “−” at a given concentration (in μM); conditions: at 25 μM
Method: Assay to Determine Inhibition the Mixed Lymphocyte Reaction
As discussed above, ICAM-1 is necessary for effective cellular interactions during an immune response mediated through LFA-1-dependent cell adhesion. When lymphocytes from two unrelated individuals are cultured together, blast transformation and cell proliferation of the lymphocytes are observed. This response is known as a mixed lymphocyte reaction (MLR) and is analogous to the response of lymphocytes to the 10 addition of antigens or mitogens (Immunology: The Science of Self-Nonself Discrimination; Klein, J., Ed.; John Wiley & Sons: NY, 1982, pp 453-458).
This assay protocol is used to determine the effect of a test compound on the human MLR.
Description of Assay Protocol:
Peripheral blood is obtained from normal, healthy donors by venipuncture. The blood is collected in heparinized tubes and diluted 1:1 at room temperature with Puck's G (GIBCO) balanced salt solution (BSS). The blood mixture (20 mL) is layered over 15 mL of a Ficoll/Hypaque density gradient (Pharmacia, density=1.078, room temperature) and centrifuged at 1000·g for 20 minutes. The interface is then collected and washed 3 times in Puck's G. The cells are counted on a hemocytometer and resuspended in RPMI 1640 culture medium (GIBCO) containing 0.5% of gentamicin, 1 mM L-glutamine (GICO) and 5% heat inactivated (56° C., 30 min) human AB sera (Flow Laboratories) (hereafter referred to as RPMI-culture medium).
Stimulator cells (cells that have been treated with irradiation so that they are unable to proliferate) from a separate donor are cultured with the responder cells at the same concentration. Test compound is added to wells at various concentrations. The total volume per culture is 0.2 mL. Controls include compound vehicle alone (DMSO), responder cells alone, and stimulator cells alone. The culture plates are incubated at 37° C. in a 5% CO2-humidified air atmosphere for 5 days.
The wells are pulsed with 0.5 μCi of tritiated thymidine (^3HT) (New England Nuclear) for the last 18 h of culture. In some cases a two-way MLR can be performed. The protocol is the same except that the second donor's cells are not inactivated by irradiation.
The cells are harvested onto glass fiber filters using an automated multiple sample harvester (Skatron, Norway), and rinsed with water and methanol. The filters are oven dried and counted in Aquasol in a Beckman (LS-3801) liquid scintillation counter.
Data are reported as “+” or “−” at a given concentration (in μM).

[4] = system: cell bound form of LFA-1 (CD18, CD11a) with ICAM-1, SKW3 cells; experiment: Inhibition of SKW3 cell binding to ICAM-1 (PMA-stimulated); type: cell-based, human; conditions: read-out: Assay to Detect SKW3 Cells Binding to ICAM IC50
Outline: (§1)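 Compound-treated, PMA-stimulated human T-cell line SKW3 (50 μg/mL PMA final) allowed to adhere for 2 h at 37° C to wells coated with sICAM-1 at 40 μg/mL or fibronectin at 100 μg/mL. After gentle RPMI wash, 50% inhibition concentration or range reported in μM.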

[5] = system: cell bound fibronectin receptor (VLA4) with fibronectin, SKW3 cells; experiment: Inhibition of SKW3 cell binding to fibronectin (selectivity counter-assay); type: cell-based, human; conditions: for IC50: Homo sapiens, read-out: Assay to Detect SKW3 Cells Binding to FIBRONECTIN IC50
Outline: as §1

[6] = No inh = no inhibition observed up to highest dose, exact quantification not always possible due to intrinsic toxicity
[7] = values marked e approximated from incomplete dose-response curve
[8] = Homo sapiens, SKW3, values marked c: no inhibition observed up to highest dose
[9] = values marked c: no inhibition observed up to highest dose
[10] = SKW3, values marked c: no inhibition observed up to highest dose
[11] = SKW3, No inh = no inhibition observed up to highest dose, exact quantification not always possible due to intrinsic toxicity

T1 sequence (P20701 26-1170): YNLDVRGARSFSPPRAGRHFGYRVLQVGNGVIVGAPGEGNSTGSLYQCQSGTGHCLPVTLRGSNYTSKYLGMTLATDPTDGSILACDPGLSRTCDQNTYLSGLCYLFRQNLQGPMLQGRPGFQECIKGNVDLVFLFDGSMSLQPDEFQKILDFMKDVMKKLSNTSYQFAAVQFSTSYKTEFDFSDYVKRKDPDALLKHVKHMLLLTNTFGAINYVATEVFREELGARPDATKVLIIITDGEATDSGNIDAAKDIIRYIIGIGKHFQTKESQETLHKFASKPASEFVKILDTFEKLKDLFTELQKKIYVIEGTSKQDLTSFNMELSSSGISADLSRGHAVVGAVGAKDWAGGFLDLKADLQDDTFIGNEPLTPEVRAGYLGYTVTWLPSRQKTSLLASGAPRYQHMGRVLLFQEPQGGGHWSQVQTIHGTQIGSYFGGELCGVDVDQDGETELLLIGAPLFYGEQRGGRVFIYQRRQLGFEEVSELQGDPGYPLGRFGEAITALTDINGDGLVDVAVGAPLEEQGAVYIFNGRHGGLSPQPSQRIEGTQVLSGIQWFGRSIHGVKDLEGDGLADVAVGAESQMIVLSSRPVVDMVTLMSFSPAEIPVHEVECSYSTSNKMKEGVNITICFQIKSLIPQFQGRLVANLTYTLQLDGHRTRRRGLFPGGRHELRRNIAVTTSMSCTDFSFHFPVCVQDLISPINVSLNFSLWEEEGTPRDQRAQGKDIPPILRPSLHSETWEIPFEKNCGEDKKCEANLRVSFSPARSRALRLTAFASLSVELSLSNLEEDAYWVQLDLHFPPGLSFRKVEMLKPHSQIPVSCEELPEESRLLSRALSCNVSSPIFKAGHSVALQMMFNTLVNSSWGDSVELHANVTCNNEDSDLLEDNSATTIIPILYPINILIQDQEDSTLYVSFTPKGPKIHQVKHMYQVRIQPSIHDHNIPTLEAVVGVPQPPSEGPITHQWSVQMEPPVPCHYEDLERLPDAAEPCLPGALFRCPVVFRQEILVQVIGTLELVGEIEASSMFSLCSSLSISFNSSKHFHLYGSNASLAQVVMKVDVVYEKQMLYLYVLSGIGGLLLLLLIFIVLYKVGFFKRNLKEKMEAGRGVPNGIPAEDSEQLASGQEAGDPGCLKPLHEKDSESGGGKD
T1 sequence (P05107 23-769): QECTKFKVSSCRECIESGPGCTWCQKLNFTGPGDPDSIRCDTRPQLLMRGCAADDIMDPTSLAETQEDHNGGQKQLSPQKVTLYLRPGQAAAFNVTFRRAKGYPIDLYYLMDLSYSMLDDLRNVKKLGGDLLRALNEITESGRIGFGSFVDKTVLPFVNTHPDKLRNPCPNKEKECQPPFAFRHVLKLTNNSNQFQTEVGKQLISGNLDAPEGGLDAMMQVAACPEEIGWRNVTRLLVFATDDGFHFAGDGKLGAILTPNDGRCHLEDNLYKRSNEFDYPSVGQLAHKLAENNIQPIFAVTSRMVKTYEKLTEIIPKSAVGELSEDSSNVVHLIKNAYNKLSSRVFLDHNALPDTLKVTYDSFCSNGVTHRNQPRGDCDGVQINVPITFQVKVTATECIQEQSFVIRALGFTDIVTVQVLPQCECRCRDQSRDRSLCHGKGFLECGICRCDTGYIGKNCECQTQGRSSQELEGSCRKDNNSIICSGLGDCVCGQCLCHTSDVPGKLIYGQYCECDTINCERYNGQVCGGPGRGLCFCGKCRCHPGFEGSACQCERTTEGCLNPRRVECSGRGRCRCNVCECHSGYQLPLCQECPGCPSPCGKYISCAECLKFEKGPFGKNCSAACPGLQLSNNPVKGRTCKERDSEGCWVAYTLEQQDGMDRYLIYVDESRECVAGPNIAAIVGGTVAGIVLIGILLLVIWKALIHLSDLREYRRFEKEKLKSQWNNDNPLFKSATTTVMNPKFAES

| Compound | IC50 [1] [µM] | Kd [2] [µM] | Mixed Lymphocyte Reaction MLR +/− [3] | IC50 ([4]; Homo sapiens, SKW3) [µM] | Cellular Toxicity Assay MTT LD50 (SKW3 cells) [µM] | Assay to Detect SKW3 Cells Binding to FIBRONECTIN IC50 [5, 6] | Kd [2, 7] [µM] | IC50 [4, 8] [µM] | Assay to Detect SKW3 Cells Binding to FIBRONECTIN IC50 [5, 9] | IC50 [5, 10] [µM] | IC50 [5, 11] [µM] | IC50 [4, 9] [µM] |
| --- | --- | --- | --- | --- | --- | --- | --- | --- | --- | --- | --- | --- |
| CCCN1C(=O)N(c2cc(Cl)cc(Cl)c2)C(=O)[C@]1(C)Cc1ccc(Br)cc1 [Example 276] | 0.5 | 1.11 | +(25) | 10 | 375 | No inh^c | – | – | – | – | – | – |
| C[C@]1(Cc2ccc([N+](=O)[O-])cc2)NC(=O)N(c2cc(Cl)cc(Cl)c2)C1=O [Example 44] | 0.3 | – | – | – | 63 to 125 | – | 0.42 | 6 to 12 | No inh^c | – | – | – |
| C[C@@]1(Cc2ccc(Br)cc2)C(=O)N(c2cc(Cl)cc(Cl)c2)C(=O)N1CCCCCC#N [Example 257] | 0.6 | 0.08 | – | 1.6 | 300 | No inh^c | – | – | – | – | – | – |
| CC1(Cc2ccccc2)NC(=O)N(c2cc(Cl)cc(Cl)c2)C1=O (centres unmarked) [Example 18] | 6 | – | – | – | 125 to 250 | – | 0.76 | 32 to 63 | – | > 125 | – | – |
| CCCC1(Cc2ccc(Br)cc2)C(=O)N(c2cc(Cl)cc(Cl)c2)C(=O)N1C (centres unmarked) [Example 173] | 2.2 | – | – | – | 200 to 400 | – | 0.17 | 4.8 | No inh^c | – | – | – |
| COC(=O)c1ccc(CC2(C)C(=O)N(c3cc(Cl)cc(Cl)c3)C(=O)N2C)cc1 (centres unmarked) [Example 140] | 0.2 | – | – | – | 180 to 360 | – | 0.11 | 1.2 | – | > 10 | – | – |
| C[C@@]1(Cc2ccc(Br)cc2)C(=O)N(c2cc(Cl)cc(Cl)c2)C(=O)N1C1CCN(CC(=O)O)CC1 [Example 237] | 0.1 | 0.13 | – | 1 to 2 | 50 to 100 | No inh^c | – | – | – | – | – | – |
| C[C@@]1(Cc2ccc(Br)cc2)C(=O)N(c2cc(Cl)cc(Cl)c2)C(=O)N1Cc1cccc(O)c1 [Example 245] | 0.7 | 0.21 | – | 1 to 3 | 25 to 50 | No inh^c | – | – | – | – | – | – |
| CN1C(=O)N(c2cc(Cl)cc(Cl)c2)C(=O)[C@@]1(C)Cc1ccc(-c2cccnc2)cc1 [Example 188] | 0.03 | – | – | – | 56 to 112 | – | 0.04 | 0.3 to 1 | No inh^c | – | – | – |
| CC(=O)CN1C(=O)N(c2cc(Cl)cc(Cl)c2)C(=O)[C@@]1(C)Cc1ccc(Br)cc1 [Example 117] | 2.2 | – | – | – | 12 | – | 1.09 | 12 | – | 12 | – | – |
| CC1(Cc2ccc(Br)cc2)NC(=O)N(c2cc(Cl)cc(Cl)c2)C1=S (centres unmarked) [Example 81] | 6.3 | – | – | – | 25 to 50 | – | 0.08 | 1 to 3 | No inh^c | – | – | – |
| CC(C)(C)N1C(=O)N(c2cc(Cl)cc(Cl)c2)C(=O)C1(C)Cc1ccc(Br)cc1 (centres unmarked) [Example 177] | 3.7 | – | – | – | 155 to 310 | – | 0.25 | 7 to 14 | No inh^c | – | – | – |
| CN1CCC(N2C(=O)N(c3cc(Cl)cc(Cl)c3)C(=O)[C@@]2(C)Cc2ccc(Br)cc2)CC1 [Example 37] | 1.6 | – | – | – | <13 | – | 0.16 | 5 to 10 | – | > 19 | – | – |
| CN1C(=O)N(c2cc(Cl)cc(Cl)c2)C(=O)C1(C)Cc1cc(Br)cc(Br)c1 (centres unmarked) [Example 164] | 25 | – | – | – | 100 to 200 | – | 0.28 | > 100 | No inh^c | – | – | – |
| CC(C)N1C(=O)N(c2cc(Cl)cc(Cl)c2)C(=O)C1Cc1ccccc1 (centres unmarked) [Example 10] | 6.3 | – | – | – | >500 | – | 0.19 | 50 | No inh^c | – | – | – |
| Cc1cccc(C)c1CC1(C)C(=O)N(c2cc(Cl)cc(Cl)c2)C(=O)N1C (centres unmarked) [Example 163] | 2.4 | – | – | – | 200 to 400 | – | 0.16 | 9 to 19 | – | > 75 | – | – |
| C[C@@]1(Cc2ccc(Br)cc2)C(=O)N(c2cc(Cl)cc(Cl)c2)C(=O)N1Cc1cccc(C(=N)N)c1 [Example 243] | 3.1 | 0.11 | – | 5 to 6 | 10 to 20 | No inh^c | – | – | – | – | – | – |
| CN1C(=S)N(c2cc(Cl)cc(Cl)c2)C(=O)C1(C)Cc1ccc(Br)cc1 (centres unmarked) [Example 80] | 3.2 | – | – | – | >400 | – | 0.19 | 5 | No inh^c | – | – | – |
| C[C@]1(Cc2ccccc2)NC(=O)N(c2cc(Cl)cc(Cl)c2)C1=O [Example 265] | 3 | 0.28 | – | 19 to 38 | 130 to 250 | – | – | – | – | – | > 75 | – |
| CC1(Cc2c[nH]c3ccccc23)NC(=O)N(c2cc(Cl)cc(Cl)c2)C1=O (centres unmarked) [Example 23] | 13 | – | – | – | 50 to 100 | – | 0.77 | – | – | > 100 | – | 25 to 50 |
| CN1C(=O)N(c2cc(Cl)cc(Cl)c2)C(=O)[C@@]1(C)Cc1ccc([N+](=O)[O-])cc1 [Example 134] | 0.1 | – | – | – | >250 | – | 0.05 | 1.5 | No inh^c | – | – | – |
| C[C@@]1(Cc2ccc(Br)cc2)C(=O)N(c2cc(Cl)cc(Cl)c2)C(=O)N1CCCN [Example 240] | 6.3 | 0.11 | – | 1 to 3 | 11 to 23 | – | – | – | – | – | 13.4 | – |
| C[C@@]1(Cc2ccc(Br)cc2)C(=O)N(c2cc(Cl)cc(Cl)c2)C(=O)N1CCCCn1ccnc1 [Example 252] | 0.3 | 0.11 | – | 0.4 to 0.8 | 17 to 20 | No inh^c | – | – | – | – | – | – |
| CC(=O)N1C(=O)N(c2cc(Cl)cc(Cl)c2)C(=O)[C@@]1(C)Cc1ccc(C#N)cc1 [Example 128] | 0.1 | – | – | – | 125 to 250 | – | 0.16 | 1.5 | No inh^c | – | – | – |
| C[C@@]1(Cc2ccc(Br)cc2)C(=O)N(c2cc(Cl)cc(Cl)c2)C(=O)N1Cc1ccccc1O [Example 247] | 2.3 | 0.23 | – | 1.5 to 3 | 40 to 80 | No inh^c | – | – | – | – | – | – |
| C[C@@]1(Cc2ccc(Br)cc2)C(=O)N(c2cc(Cl)cc(Cl)c2)C(=O)N1C1CCNCC1 [Example 224] | 3.1 | 0.28 | – | 5 to 10 | <25 | No inh^c | – | – | – | – | – | – |

Source: patent publication USRE38132E1, “Phenylpyrrolidines, phenylimidazolidines,3-phenyl-1,3-oxizolidines and 3-phenyl-1,3-thiazolidines and their use in the treatment of inflammatory disease” (Boehringer Ingelheim Pharmaceuticals, Inc., priority 1997, dated 2003)
